Marks after values point to notes of the source that are not given here.
Assays:
Type in all cases: in vivo, human
[1] = Quantitative sensory evaluation test of kokumi-imparting activity; details: n=4
Method: This quantitative sensory evaluation test was carried out according to the following procedures: The intensity of the kokumi-imparting activity observed for each test compound was determined as a value observed when blending 0.00001 to 0.5 g/dL of the corresponding test compound with the distilled water containing sodium glutamate (0.05 g/dL), inosinic acid monophosphate (0.05 g/dL), and sodium chloride (0.5 g/dL). […] The evaluation criteria are assumed to be as follows: control: 0 point; strong: 3 points; very strong: 5 points. Moreover, to clarify the criteria, the initial taste and the middle/after taste of γ-Glu-Val-Gly were set at 3.0 points, respectively. The scoring or rating was carried out using the method of line scale and more specifically, it was carried out by writing each corresponding score on a straight line on which points corresponding to −5˜0˜5 had been indicated. The panelists used in this test were defined to be persons who had been engaged in the development of seasonings for foods over not less than one year of the cumulative time period and who could judge that the difference in the titer between γ-Glu-Cys-Gly and γ-Glu-Val-Gly added to a solution having umami/salty taste is about 10 times (while confirming the ability of these persons at regular intervals). The evaluation was carried out at n (the number of panelists used)=4. The term “initial taste” means the taste which develops from 0 to 2 seconds after the sample is placed in the panelist's mouth, while the term “middle/after taste” means the taste which develops thereafter.
In addition, γ-Glu-Val-Gly, γ-Glu-Cys, γ-Glu-Val, γ-Glu-Ala and γ-Glu-Ser were likewise inspected for their kokumi-imparting effect according to the same procedures used above.

[2] = Paired comparison sensory test, basil (Labiatae) herb/spice solution; details: 0.5% basil solution, N=9
Method: More specifically, the sensory evaluation test was carried out according to the following procedures: Commercially available typical herb/spice in powdery form was dispersed in water in a concentration of 0.5% by mass to thus form a herb/spice solution. This solution was admixed with γ-Glu-Nva, γ-Glu-Cys-Gly, or γ-Glu-Abu as a test compound. According to the paired comparison test, the panelists were requested to comparatively evaluate the following three samples and to judge whether “any of them was preferred since it could enhance the flavor and taste of the herb/spice solution without changing the balance between them”: (1) 0.02% by mass of γ-Glu-Cys-Gly whose kokumi-imparting activity was identical to 0.00015% by mass of γ-Glu-Nva; (2) 0.00015% by mass of γ-Glu-Abu, the amount of which was identical to 0.00015% by mass of γ-Glu-Nva; (3) 0.003% by mass of γ-Glu-Abu whose kokumi-imparting activity was identical to that observed for 0.00015% by mass of γ-Glu-Nva. The panelists used in this test were persons who had been engaged in the development of seasonings for foods over not less than one year of the cumulative time period and who could judge that the difference in the titer between γ-Glu-Cys-Gly and γ-Glu-Val-Gly added to a solution having umami/salty taste is about 10 times (while confirming the ability of these persons at regular intervals). The evaluation was carried out at N (the number of panelists used)=9.

[3] = Paired comparison sensory test, solution of tomato catsup; details: 33.3% tomato catsup solution, N=9, significant level of 1%
Method: More specifically, the sensory evaluation test was carried out according to the following procedures: Commercially available tomato catsup for popular use was dispersed in hot water in a concentration of 33.3% by mass to thus form a solution of tomato catsup. This solution was admixed with γ-Glu-Nva, γ-Glu-Cys-Gly, or γ-Glu-Abu as a test compound. According to the paired comparison test method (pair test), the panelists were requested to comparatively evaluate the following three samples and to judge whether “any of them was preferred or favorable since it could enhance the flavor and taste of the solution of tomato catsup without changing the balance between them”: (1) 0.02% by mass of γ-Glu-Cys-Gly whose kokumi-imparting activity was identical to 0.0004% by mass of γ-Glu-Nva; (2) 0.0004% by mass of γ-Glu-Abu, the amount of which was identical to 0.0004% by mass of γ-Glu-Nva; (3) 0.003% by mass of γ-Glu-Abu whose kokumi-imparting activity was identical to that observed for 0.0004% by mass of γ-Glu-Nva. The panelists used in this test were persons who had been engaged in the development of seasonings for foods over not less than one year of the cumulative time period and who could judge that the difference in the titer between γ-Glu-Cys-Gly and γ-Glu-Val-Gly added to a solution having umami/salty taste was about 10 times (while confirming the ability of these persons at regular intervals). The evaluation was carried out at N (the number of panelists used)=9.
However, the results observed for tomato catsup are shown in Table 6 as the typical example thereof.

CCC[C@H](NC(=O)CC[C@H](N)C(=O)O)C(=O)O [γ-Glu-Nva, γ-L-glutamyl-L-norvaline]
Sensory Evaluation Profile ([1]; 0.0001 g/dL in umami/salty solution): Mainly the initial and middle tastes
Intensity of kokumi, Middle/After Taste ([1]; 0.0001 g/dL in water with MSG 0.05, IMP 0.05, NaCl 0.5 g/dL): 2.8 points
Intensity of kokumi, Initial Taste ([1]; 0.0001 g/dL in water with MSG 0.05, IMP 0.05, NaCl 0.5 g/dL, scale control 0, strong 3, very strong 5): 3.6 points
No. of Panelists who judged γ-Glu-Nva rather preferred ([2]; 0.00015 wt % γ-Glu-Nva vs 0.00015 wt % γ-Glu-Abu, significant level of 1%): 9/9**
No. of Panelists who judged γ-Glu-Nva rather preferred ([2]; 0.00015 wt % γ-Glu-Nva vs 0.003 wt % γ-Glu-Abu, significant level of 5%): 8/9***
No. of Panelists who judged γ-Glu-Nva rather preferred ([2]; 0.00015 wt % γ-Glu-Nva vs 0.02 wt % γ-Glu-Cys-Gly, significant level of 1%): 9/9**
No. of Panelists who judged γ-Glu-Nva rather preferred ([3]; 0.0004 wt % γ-Glu-Nva vs 0.0004 wt % γ-Glu-Abu): 9/9**
No. of Panelists who judged γ-Glu-Nva rather preferred ([3]; 0.0004 wt % γ-Glu-Nva vs 0.003 wt % γ-Glu-Abu): 9/9**
No. of Panelists who judged γ-Glu-Nva rather preferred ([3]; 0.0004 wt % γ-Glu-Nva vs 0.02 wt % γ-Glu-Cys-Gly): 9/9**

— patent US8541379B2 (Ajinomoto Co., Inc., priority 2009, dated 2013)
